Tests used:
Rats [1] = test: Metabolic rate by closed-circuit oxygen consumption in fasted rats (test c); format: in vivo; details: at 1mgkg^-1 p.o.; determined for at least one hour after dosing
BAT mitochondria = test: GDP binding in BAT mitochondria of cold-adapted rats as a measure of thermogenic activation (test a); format: in vivo; details: Rattus norvegicus, 1 h; oral; dose producing 50% of the effect of isoprenaline (1 mgkg-1) on GDP binding; rats sacrificed one hour after dosing
Rats [2] = test: Heart rate in rats adapted to a thermoneutral environment; D500 dose and selectivity index (test b); details: selectivity index = ratio of D500 to ED50 in test (a)

Row | Compound | metabolic rate (Rats [1]) | ED50 (BAT mitochondria) [mg/kg] | SI (Rats [2]; oral) | SI (Rats [2]; route not stated)
1 | COCC(=O)Cc1ccc(OCCNCC(O)c2ccccc2)cc1 (stereo not shown) [Example 1, 1-[4-(2-(2-Hydroxy-2-phenylethylamino)ethoxy)phenyl]-3-methoxypropan-2-one] | 4.99 ml O2 min^-1 (Kg^0.75)^-1 | 0.98 | > 50 | 
2 | CC(C)NCC(O)c1ccc(O)c(O)c1 (stereo not shown) [isoprenaline, reference compound] |  |  |  | 0.06

— patent EP0565317A1, “(2-(2-hydroxy-2 phenylethylamino)ethoxy) phenyl derivatives, processes and intermediates for their preparation, pharmaceutical compositions containing them and their use as Beta-3-adrenoceptor agonists” (ZENECA LIMITED, priority 1992, dated 1993)
